System: 843782-103-R-J1-PDC complex spheroid viability
Test: Anticancer human tumor 843782-103-R-J1-PDC patient-derived lung adenocarcinoma cell line growth inhibition [RAS]
Settings: for IC50: curve of first compound; for viability, T/C: stronger effect = lower value; active = viability on the fitted dose curve at most 10% of control; inactive = the rest
How it was run: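 Agents were tested in combination matrices in half-log decrements from a top concentration at or near clinical Cmax (10 microM if undetermined). Targets were multi-cell spheroids of tumour lines plus HUVEC and MSC stromal cells.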

[1] = second compound 0.00316 µM, first compound 0.0316 µM
[2] = second compound 0.00316 µM, first compound 0.1 µM
[3] = second compound 0.01 µM, first compound 0.0316 µM
[4] = second compound 0.01 µM, first compound 0.1 µM
[5] = second compound 0.0316 µM, first compound 0.0316 µM
[6] = second compound 0.0316 µM, first compound 0.1 µM
[7] = second compound 0.1 µM, first compound 0.0316 µM
[8] = second compound 0.1 µM, first compound 0.1 µM
[9] = second compound 0.316 µM, first compound 0.0316 µM
[10] = second compound 0.316 µM, first compound 0.1 µM
[11] = second compound 1 µM, first compound 0.0316 µM
[12] = second compound 1 µM, first compound 0.1 µM
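Note: viability read after seven days of compound exposure.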

CC(C)NCC(C(=O)N1CCN(c2ncnc3c2C(C)CC3O)CC1)c1ccc(Cl)cc1 (centres undefined) + C=CC(=O)N1CCN(c2nc(OCC3CCCN3C)nc3c(F)c(-c4nc(N)cc(C)c4C(F)(F)F)c(Cl)cc23)C(C)C1
672 nM: IC50 (second compound 0.0316 µM)
641 nM: IC50 (second compound 0.316 µM)
726 nM: IC50 (second compound 0.00316 µM)
669 nM: IC50 (second compound 0.1 µM)
active: viability, T/C (second compound 0.00316 µM, first compound 10 µM) 8.64% | viability, T/C (second compound 0.0316 µM, first compound 10 µM) 6.65% | viability, T/C (second compound 0.1 µM, first compound 10 µM) 8.54% | viability, T/C (second compound 0.316 µM, first compound 10 µM) 8.75% | viability, T/C (second compound 1 µM, first compound 10 µM) 7.97%
869 nM: IC50 (second compound 1 µM)
inactive: viability, T/C [1] 91.6% | viability, T/C [2] 81.3% | viability, T/C (second compound 0.00316 µM, first compound 0.316 µM) 70% | viability, T/C (second compound 0.00316 µM, first compound 1 µM) 42.9% | viability, T/C (second compound 0.00316 µM, first compound 3.16 µM) 18.8% | viability, T/C [3] 88.5% | viability, T/C [4] 85.1% | viability, T/C (second compound 0.01 µM, first compound 0.316 µM) 75.1% | viability, T/C (second compound 0.01 µM, first compound 1 µM) 38.3% | viability, T/C (second compound 0.01 µM, first compound 3.16 µM) 19.2% | viability, T/C (second compound 0.01 µM, first compound 10 µM) 8.6% | viability, T/C [5] 89% | viability, T/C [6] 81.2% | viability, T/C (second compound 0.0316 µM, first compound 0.316 µM) 70.6% | viability, T/C (second compound 0.0316 µM, first compound 1 µM) 38.8% | viability, T/C (second compound 0.0316 µM, first compound 3.16 µM) 17.3% | viability, T/C [7] 91.5% | viability, T/C [8] 77.9% | viability, T/C (second compound 0.1 µM, first compound 0.316 µM) 65.4% | viability, T/C (second compound 0.1 µM, first compound 1 µM) 44.7% | viability, T/C (second compound 0.1 µM, first compound 3.16 µM) 17.2% | viability, T/C [9] 91.5% | viability, T/C [10] 79.7% | viability, T/C (second compound 0.316 µM, first compound 0.316 µM) 67.2% | viability, T/C (second compound 0.316 µM, first compound 1 µM) 40.1% | viability, T/C (second compound 0.316 µM, first compound 3.16 µM) 18.2% | viability, T/C [11] 89.2% | viability, T/C [12] 74.2% | viability, T/C (second compound 1 µM, first compound 0.316 µM) 72.2% | viability, T/C (second compound 1 µM, first compound 1 µM) 47.9% | viability, T/C (second compound 1 µM, first compound 3.16 µM) 20.7%
711 nM: IC50 (second compound 0.01 µM)

CC(C)n1nc(-c2ccc3oc(N)nc3c2)c2c(N)ncnc21 + C=CC(=O)N1CCN(c2nc(OCC3CCCN3C)nc3c(F)c(-c4nc(N)cc(C)c4C(F)(F)F)c(Cl)cc23)C(C)C1
9.84 nM: IC50 (second compound 1 µM)
8.44 nM: IC50 (second compound 0.316 µM)
8.53 nM: IC50 (second compound 0.1 µM)
14.2 nM: IC50 (second compound 0.00316 µM)
9.03 nM: IC50 (second compound 0.01 µM)
inactive: viability, T/C (second compound 0.00316 µM, first compound 0.000316 µM) 93.5% | viability, T/C (second compound 0.00316 µM, first compound 0.001 µM) 72% | viability, T/C (second compound 0.00316 µM, first compound 0.00316 µM) 81.2% | viability, T/C (second compound 0.00316 µM, first compound 0.01 µM) 53.2% | viability, T/C [1] 36.3% | viability, T/C [2] 21.2% | viability, T/C (second compound 0.01 µM, first compound 0.000316 µM) 86.5% | viability, T/C (second compound 0.01 µM, first compound 0.001 µM) 79.8% | viability, T/C (second compound 0.01 µM, first compound 0.00316 µM) 63.3% | viability, T/C (second compound 0.01 µM, first compound 0.01 µM) 50.2% | viability, T/C [3] 30.8% | viability, T/C [4] 18.8% | viability, T/C (second compound 0.0316 µM, first compound 0.000316 µM) 84.4% | viability, T/C (second compound 0.0316 µM, first compound 0.001 µM) 79.2% | viability, T/C (second compound 0.0316 µM, first compound 0.00316 µM) 66.6% | viability, T/C (second compound 0.0316 µM, first compound 0.01 µM) 48.3% | viability, T/C [5] 36.5% | viability, T/C [6] 20.9% | viability, T/C (second compound 0.1 µM, first compound 0.000316 µM) 81.6% | viability, T/C (second compound 0.1 µM, first compound 0.001 µM) 73.6% | viability, T/C (second compound 0.1 µM, first compound 0.00316 µM) 66.4% | viability, T/C (second compound 0.1 µM, first compound 0.01 µM) 45.4% | viability, T/C [7] 33.1% | viability, T/C [8] 19.9% | viability, T/C (second compound 0.316 µM, first compound 0.000316 µM) 101% | viability, T/C (second compound 0.316 µM, first compound 0.001 µM) 73.5% | viability, T/C (second compound 0.316 µM, first compound 0.00316 µM) 67.3% | viability, T/C (second compound 0.316 µM, first compound 0.01 µM) 51% | viability, T/C [9] 28.8% | viability, T/C [10] 19.2% | viability, T/C (second compound 1 µM, first compound 0.000316 µM) 85.3% | viability, T/C (second compound 1 µM, first compound 0.001 µM) 73.9% | viability, T/C (second compound 1 µM, first compound 0.00316 µM) 62.2% | viability, T/C (second compound 1 µM, first compound 0.01 µM) 53.5% | viability, T/C [11] 31.8% | viability, T/C [12] 18.7%
10.4 nM: IC50 (second compound 0.0316 µM)

Source: PubChem BioAssay AID2060883 (Molecular Pharmacology Branch, DTP, NCI, 2025)
